Like-named read-outs stand apart in the source and are kept apart here.
Experiments:
[1] = molecular target: T1, Human Indoleamine 2,3-dioxygenase (IDO) (Homo sapiens, UniProt P14902); assay: Human IDO enzymatic assay (kynurenine level); assay type: biochemical; details: 6 nM IDO, 10 μM L-Trp; geometric mean; read-out: IDO1 GMean: IC50 (μM) (Biochemical Assay)
T1 construct: His tag (N); made in house; host or cells: E. coli
Method in brief: (§1)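 N-His human IDO (6 nM, 10 μM L-Trp, 5 μM methylene blue, 20 min) or TDO (1 nM, 350 μM L-Trp, 0.4 μM methylene blue, 70 min) run at room temp in pH 6.5 phosphate with ascorbate, catalase, Tween 20. TCA stop, 30 min 50 °C converts N-formylkynurenine to kynurenine; IC50 by nonlinear regression.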

[2] = molecular target: T2, human IDO (IDO1-expressing HEK293 cells) (Homo sapiens, UniProt P14902); assay: Cell based kynurenine assay, IDO1-expressing HEK293 cell clones; details: IDO1-expressing HEK293 cells, geometric mean, read-out: HEK293 IDO1 Kynurenine GMean IC50 (μM) (Cellular Assay)
T2 construct: expressed in transfected cells
Method in brief: (§2)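 Stably transfected HEK293 clones expressing human IDO1 or TDO (CMV promoter) were seeded at 2.5×10^4 cells/well and treated with serially diluted compounds for 24 h. Supernatant kynurenine was then measured, and % inhibition versus DMSO-treated cell and media-only controls was fitted by nonlinear regression to give IC50.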

[3] = molecular target: T3, Human Tryptophan 2,3-dioxygenase (TDO) (Homo sapiens, UniProt P48775); assay: Human TDO enzymatic assay (kynurenine level); assay type: biochemical; details: 1 nM TDO, 350 μM L-Trp; geometric mean; read-out: TDO GMean: IC50 (μM) (Biochemical Assay)
T3 construct: His tag (N); made in house; host or cells: E. coli
Method in brief: as §1

[4] = molecular target: T4, human TDO (TDO-expressing HEK293 cells) (Homo sapiens, UniProt P48775); assay: Cell based kynurenine assay, TDO-expressing HEK293 cell clones; details: TDO-expressing HEK293 cells, geometric mean, read-out: HEK293 TDO Kynurenine GMean IC50 (μM) (Cellular Assay)
T4 construct: expressed in transfected cells
Method in brief: as §2

T3 sequence (P48775 whole entry): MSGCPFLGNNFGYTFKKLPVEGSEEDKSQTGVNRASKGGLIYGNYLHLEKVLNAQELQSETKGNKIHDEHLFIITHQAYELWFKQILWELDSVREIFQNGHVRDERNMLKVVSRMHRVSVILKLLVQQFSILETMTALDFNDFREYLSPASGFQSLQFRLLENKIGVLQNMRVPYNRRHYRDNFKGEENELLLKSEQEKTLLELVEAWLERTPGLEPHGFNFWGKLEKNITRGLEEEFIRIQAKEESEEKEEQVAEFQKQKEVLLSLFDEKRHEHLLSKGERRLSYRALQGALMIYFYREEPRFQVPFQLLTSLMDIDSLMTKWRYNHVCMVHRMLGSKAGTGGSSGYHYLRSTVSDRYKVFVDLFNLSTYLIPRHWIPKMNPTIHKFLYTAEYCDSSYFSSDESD
T4 sequence (P48775 whole entry): as above
T2 sequence (P14902 whole entry): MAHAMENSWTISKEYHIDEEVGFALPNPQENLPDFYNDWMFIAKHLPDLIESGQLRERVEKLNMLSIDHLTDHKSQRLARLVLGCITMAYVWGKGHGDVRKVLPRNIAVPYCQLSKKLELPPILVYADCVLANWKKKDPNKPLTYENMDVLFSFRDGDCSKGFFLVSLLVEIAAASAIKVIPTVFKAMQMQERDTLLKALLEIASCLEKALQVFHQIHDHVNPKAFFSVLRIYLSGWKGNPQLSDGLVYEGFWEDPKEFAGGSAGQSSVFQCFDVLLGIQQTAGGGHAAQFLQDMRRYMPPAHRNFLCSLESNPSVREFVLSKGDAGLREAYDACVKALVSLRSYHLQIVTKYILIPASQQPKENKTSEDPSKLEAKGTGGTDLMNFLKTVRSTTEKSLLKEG
T1 sequence (P14902 whole entry): as above

IC50 [1]	IC50 ([2]; 24 hours incubation)	IC50 [3]	IC50 ([4]; 24 hours incubation)	IC50 ([2]; 24 hours)	IC50 ([4]; 24 hours)	SMILES
0.0001 to 10 µM	0.0001 to 10 µM	0.0001 to 10 µM	0.0001 to 10 µM	–	–	CCOC(=O)NC(=O)N1CCC(C(C)(C)C(O)c2cc(Cl)cc3cn[nH]c23)CC1 (centres unmarked) [Compound P-0405, ethyl (4-(1-(5-chloro-1H-indazol-7-yl)-1-hydroxy-2-methylpropan-2-yl)piperidine-1-carbonyl)carbamate]
0.0001 to 10 µM	–	0.0001 to 10 µM	–	0.0001 to 10 µM	0.0001 to 10 µM	O=C(C1CCC1)N1CCC(C(F)(F)C(O)c2c(F)c(Cl)cc3cn[nH]c23)CC1 (centres unmarked) [Compound P-0409, (4-(2-(5-chloro-6-fluoro-1H-indazol-7-yl)-1,1-difluoro-2-hydroxyethyl)piperidin-1-yl)(cyclobutyl) methanone]
0.0001 to 10 µM	–	0.0001 to 10 µM	–	0.0001 to 10 µM	0.0001 to 10 µM	CC(C)(C1CCN(C(=O)C2CCC2)CC1)C(O)c1cc(Cl)cc2cn[nH]c12 (centres unmarked) [Compound P-0412, (4-(1-(5-chloro-1H-indazol-7-yl)-1-hydroxy-2-methylpropan-2-yl)piperidin-1-yl)(cyclobutyl) methanone]

Second part, the compound before the results:

SMILES	IC50 [1]	IC50 ([2]; 24 hours incubation)	IC50 [3]	IC50 ([4]; 24 hours incubation)	IC50 ([2]; 24 hours)	IC50 ([4]; 24 hours)
CC(C)(C1CCN(C(=O)Nc2cc(F)ccc2F)CC1)C(O)c1cc(Cl)cc2cn[nH]c12 (centres unmarked) [Compound P-0404, 4-(1-(5-chloro-1H-indazol-7-yl)-1-hydroxy-2-methylpropan-2-yl)-N-(2,5-difluorophenyl) piperidine-1-carboxamide]	0.0001 to 10 µM	0.0001 to 10 µM	0.0001 to 10 µM	0.0001 to 10 µM	–	–
Cc1ccc(Cl)c(NC(=O)N2CCC(C(C)(C)C(O)c3cc(Cl)cc4cn[nH]c34)CC2)c1 (centres unmarked) [Compound P-0406, 4-(1-(5-chloro-1H-indazol-7-yl)-1-hydroxy-2-methylpropan-2-yl)-N-(2-chloro-5-methylphenyl) piperidine-1-carboxamide]	0.0001 to 10 µM	–	0.0001 to 10 µM	–	0.0001 to 10 µM	0.0001 to 10 µM
OC1(c2cc(Cl)cc3cn[nH]c23)[C@H]2CCC[C@@H]1CCC2 (stereo partly drawn) [Compound P-0407, (1R,5S)-9-(5-chloro-1H-indazol-7-yl)bicyclo[3.3.1] nonan-9-ol]	0.0001 to 10 µM	–	0.0001 to 10 µM	–	> 10 µM	0.0001 to 10 µM
O=C(CC1CC1)N1CCC(C(F)(F)C(O)c2c(F)c(Cl)cc3cn[nH]c23)CC1 (centres unmarked) [Compound P-0408, 1-(4-(2-(5-chloro-6-fluoro-1H-indazol-7-yl)-1,1-difluoro-2-hydroxyethyl)piperidin-1-yl)-2-cyclopropylethan-1-one]	0.0001 to 10 µM	–	0.0001 to 10 µM	–	0.0001 to 10 µM	0.0001 to 10 µM
CC(C)(C1CCN(C(=O)CC2CC2)CC1)C(O)c1cc(Cl)cc2cn[nH]c12 (centres unmarked) [Compound P-0410, 1-(4-(1-(5-chloro-1H-indazol-7-yl)-1-hydroxy-2-methylpropan-2-yl)piperidin-1-yl)-2-cyclopropylethan-1-one]	0.0001 to 10 µM	–	0.0001 to 10 µM	–	0.0001 to 10 µM	0.0001 to 10 µM
CC(C)CC(=O)N1CCC(C(C)(C)C(O)c2cc(Cl)cc3cn[nH]c23)CC1 (centres unmarked) [Compound P-0411, 1-(4-(1-(5-chloro-1H-indazol-7-yl)-1-hydroxy-2-methylpropan-2-yl)piperidin-1-yl)-3-methylbutan-1-one]	0.0001 to 10 µM	–	0.0001 to 10 µM	–	0.0001 to 10 µM	0.0001 to 10 µM
CC(C)C(=O)N1CCC(C(C)(C)C(O)c2cc(Cl)cc3cn[nH]c23)CC1 (centres unmarked) [Compound P-0413, 1-(4-(1-(5-chloro-1H-indazol-7-yl)-1-hydroxy-2-methylpropan-2-yl)piperidin-1-yl)-2-methylpropan-1-one]	0.0001 to 10 µM	–	0.0001 to 10 µM	–	0.0001 to 10 µM	0.0001 to 10 µM
COCC(=O)N1CCC(C(C)(C)C(O)c2cc(Cl)cc3cn[nH]c23)CC1 (centres unmarked) [Compound P-0414, 1-(4-(1-(5-chloro-1H-indazol-7-yl)-1-hydroxy-2-methylpropan-2-yl)piperidin-1-yl)-2-methoxyethan-1-one]	0.0001 to 10 µM	–	0.0001 to 10 µM	–	0.0001 to 10 µM	0.0001 to 10 µM

— patent publication US10508085B2, “Compounds and methods for IDO and TDO modulation, and indications therefor” (Plexxikon Inc., priority 2016, dated 2019)
